# Like-named read-outs stand apart in the source and are kept apart here. Starred links: 1 amine or outer side, 2 acyl side, 3 side chain; linkers in the order of their positions; H or OH if unused. Positions of bridges follow the written chain, without caps; N, C: chain ends. Non-standard residues stand in square brackets, D forms with d. Residues, ends and D or L forms follow the SMILES beside them. No end group written: not given here. *: point of attachment. hTyr(3S-OH,4S-OH,3'-OSO3H) = N[C@H](C(=O)O)[C@H](O)[C@@H](O)c1ccc(O)c(OS(=O)(=O)O)c1; pTerphenylCO(4''-OnC5H11) = CCCCCOc1ccc(-c2ccc(-c3ccc(C(=O)*)cc3)cc2)cc1; Orn(4R-OH,5R-OH) = O=C([C@H](C[C@@H](O)[C@@H](O)N[*:3])N[*:1])[*:2]; hTyr(3S-OH,4S-OH) = N[C@H](C(=O)O)[C@H](O)[C@@H](O)c1ccc(O)cc1; Pro(3S-OH,4S-Me) = C[C@H]1CN[C@H](C(=O)O)[C@H]1O; X1 = CCCCCOc1ccc(-c2cc(-c3ccc(C(=O)*)cc3)no2)cc1; Gln(3R-OH) = NC(=O)C[C@@H](O)[C@H](N)C(=O)O; Hyp = O=C(O)[C@@H]1C[C@@H](O)CN1
# Assays:
# [1] = Variable temperature circular dichroism; format: physicochemical
# Method: The Ultraviolet-visible (UV-VIS) spectroscopy of samples were collected by a Shimadzu UV-3600. For FTIR, 3 mg of powdered sample and 50 mg of potassium bromide (KBr) were mixed for tablet compression analysis with transmittance at 400–4000 cm^−1, collected using an iS10 FTIR spectrometer (USA). Measurements were performed by averaging 32 scans at 4-cm^−1 resolution (signal-to-noise ratio (S/N) = 50,000). The single-molecule STM imaging experiments were performed under ambient conditions by using a Nanoscope IIIa SPM system (Bruker, USA). 10 μL of the peptide solution was incubated on the surface of freshly cleaved highly oriented pyrolytic graphite (HOPG) at room temperature for 20 min. Then the excess peptide solution was removed from the substrate surface. The STM tips were mechanically made by Ir/Pt wires (20/80). Different STM tips and samples were used in these imaging experiments to ensure reproducibility. […] Zeta potentials of samples were determined using a Zetasizer Nano ZS90 (England) via three tests in a 1-mL sample cell. All CD datum were collected using Chirascan Plus (England) and analyzed at 190-260 nm. […] Pyridine infrared (IR) were measured at 1400–1700 cm^−1 using Thermo Scientific Nicolet 380 (USA). […] The fluorescence signals (I374nm, I394nm) were collected for detecting CMC using the pyrene probe under excitation at 330 nm across various concentrations of peptides.
# G. vaginalis (ATCC14018) = assay: Antibacterial activity, colony counting; format: cell-based, Gardnerella vaginalis
# Method: (§1) The antibacterial effects of Ni-IH-7 were also evaluated with E. coli (CMCC(B)44102), S. aureus (ATCC 29213) and Methicillin-resistant Staphylococcus aureus (MRSA) (ATCC43300), G. vaginalis (ATCC14018) and metronidazole-resistant G. vaginalis (provided by Xishan People’s Hospital of Wuxi City) under the similar procedures as those for C. albicans. Initially, E. coli, S. aureus and MRSA stored at -80°C were thawed and inoculated into Luria-Bertani liquid culture medium for overnight shaking. The culture volume was 5 mL, and the incubation conditions were set at 37°C in an air incubator. The next day, E. coli, S. aureus and MRSA were transferred to fresh culture medium and incubated for 2 h to activate the bacteria. The inoculum was approximately 10^5-6 CFU mL^−1. The culture volume was 10 mL, and the conditions were maintained at 37 °C in an air incubator. The quantities of E. coli, S. aureus and MRSA could reach 10^7-8 CFU mL^−1. Mixtures of 100 µL of E. coli, S. aureus and MRSA with 100 µL of Ni-IH-7 solution were prepared in 800 µL of sterile water and incubated for 0–6 h. Subsequently, 100 µL of different dilutions of the mixture were evenly spread on Luria-Bertani agar plates, followed by incubation at 37 °C from 24 to 48 h, and colony counting assay was performed to determine antibacterial efficiency. Similarly, G. vaginalis stored at −80°C was thawed and inoculated into brain-heart infusion (BHI) medium. This BHI medium consisted of brain/heart infusion broth containing 1% gelatin, 1% yeast extract, 0.1% soluble starch, 0.1% glucose, and 10% fetal bovine serum, and the inoculation process occurred overnight. The volume of the medium used was 5 mL, and the incubation condition was set at 37 °C in an incubator with 5% CO2. Following an overnight incubation post-inoculation, the necessary amount of bacterial solution was taken and transferred into fresh medium at a ratio of 1:25. This fresh medium was then cultured at 37°C with 5% CO2 for 6–8 h until the OD600 reached approximately 0.5. Next, an appropriate quantity of the bacterial inoculum was centrifuged at 4300 × g for 5 min at 4 °C to replace the bacteria from the culture medium with an equivalent volume of sterile water. For the experimental setup, 100 µL of G. vaginalis was mixed with 900 µL of sterile water as the control group. In the experimental group, 100 µL of G. vaginalis was mixed with either Ni-IH-7 solutions, Ni(Ac)2, or metronidazole in 800 µL of sterile water. The colony counting assay was performed to determine antibacterial efficiency.
# S. aureus (ATCC 29213) = assay: Antibacterial activity, colony counting; format: cell-based, Staphylococcus aureus
# Method: as §1
# [2] = PLC-like activity (PLC activity Assay Kit); format: biochemical
# Method: To detect POD-like activity, 140 µL of sodium acetate buffer (pH 4.5, 0.2 M), 20 µL of 10 mM TMB, 20 µL of 1.5 mM Ni-IH-7 or 1.5 mM 4H2O·Ni(Ac)2, and 20 µL of H2O2 (50 mM) were added in order and reacted for 2 h at 37 °C. Absorbance at 652 nm was monitored using a microplate reader. PLC activity Assay Kit was used to detect PLC-like activity.
# E. coli (CMCC(B)44102) = assay: Antibacterial activity, colony counting; format: cell-based, Escherichia coli
# Method: as §1
# [3] = tested on: C. albicans (ATCC10231, ATCC90028, ATCC90029); design: key: R: resistant; S: susceptible; DD-S: Dose dependent-susceptible; conditions: ref ATCC; cited from earlier work
# Description: […] T h re e times each experiment was repeated independently with similar results. Representative images are shown. (1 picture or pasted object on this page, not shown here)
# [4] = 50 μg mL-1, in sterile water, replicate 1 of n = 3
# [5] = 50 μg mL-1, in sterile water, replicate 2 of n = 3
# [6] = 50 μg mL-1, in sterile water, replicate 3 of n = 3
# [7] = 100 μg mL-1, in sterile water, replicate 1 of n = 3
# [8] = 100 μg mL-1, in sterile water, replicate 2 of n = 3
# [9] = 100 μg mL-1, in sterile water, replicate 3 of n = 3
# [10] = 25 μg mL-1, in sterile water, replicate 1 of n = 3
# [11] = 25 μg mL-1, in sterile water, replicate 2 of n = 3
# [12] = 25 μg mL-1, in sterile water, replicate 3 of n = 3
molecule,measurement,setting,value
IHIHICI [Ni-IH-7],thermal stability of conformation,[1],retained β-sheet conformation
same,resistance to enzymatic degradation by snailase,snailase,considerable resistance to enzymatic degradation
same,resistance to enzymatic degradation by lyticase,lyticase,considerable resistance to enzymatic degradation
same,resistance to enzymatic degradation by neutral protease,neutral protease,considerable resistance to enzymatic degradation
IHIHICI [IH-7],thermal stability of conformation,"[1]; variable temperature CD, 20–95 °C",changed from random coil at low temperature to α-helix at high temperature
"CC(=O)[O-].CC(=O)[O-].O.O.O.O.[Ni+2] [Ni2+, nickel acetate]",Antimicrobial activity toward G. vaginalis (Figure 7c),"G. vaginalis (ATCC14018); 10 μg mL-1, in sterile water, replicate 1 of n = 3",5.431
same,Antimicrobial activity toward G. vaginalis (Figure 7c),"G. vaginalis (ATCC14018); 10 μg mL-1, in sterile water, replicate 2 of n = 3",5.477
same,Antimicrobial activity toward G. vaginalis (Figure 7c),"G. vaginalis (ATCC14018); 10 μg mL-1, in sterile water, replicate 3 of n = 3",5.4624
same,Antimicrobial activity toward G. vaginalis (Figure 7c),G. vaginalis (ATCC14018); [4],5.826
same,Antimicrobial activity toward G. vaginalis (Figure 7c),G. vaginalis (ATCC14018); [5],5.602
same,Antimicrobial activity toward G. vaginalis (Figure 7c),G. vaginalis (ATCC14018); [6],5.74
same,Antimicrobial activity toward G. vaginalis (Figure 7c),G. vaginalis (ATCC14018); [7],5.13
same,Antimicrobial activity toward G. vaginalis (Figure 7c),G. vaginalis (ATCC14018); [8],5.041
same,Antimicrobial activity toward G. vaginalis (Figure 7c),G. vaginalis (ATCC14018); [9],5.1038
same,Antimicrobial activity toward S. aureus (Figure 7b),S. aureus (ATCC 29213); [10],7.5682
same,Antimicrobial activity toward S. aureus (Figure 7b),S. aureus (ATCC 29213); [11],6.875
same,Antimicrobial activity toward S. aureus (Figure 7b),S. aureus (ATCC 29213); [12],7.049
same,Antimicrobial activity toward S. aureus (Figure 7b),S. aureus (ATCC 29213); [4],7.146
same,Antimicrobial activity toward S. aureus (Figure 7b),S. aureus (ATCC 29213); [5],6.498
same,Antimicrobial activity toward S. aureus (Figure 7b),S. aureus (ATCC 29213); [6],7.364
same,Antimicrobial activity toward S. aureus (Figure 7b),S. aureus (ATCC 29213); [7],6.991
same,Antimicrobial activity toward S. aureus (Figure 7b),S. aureus (ATCC 29213); [8],7.161
same,Antimicrobial activity toward S. aureus (Figure 7b),S. aureus (ATCC 29213); [9],7.352
same,PLC-like activity (Figure 5d),[2]; replicate 1 of n = 3,0.0001855
same,PLC-like activity (Figure 5d),[2]; replicate 2 of n = 3,0.002181
same,PLC-like activity (Figure 5d),[2]; replicate 3 of n = 3,0.003085
same,Antimicrobial activity toward E. coli (Figure 7a),E. coli (CMCC(B)44102); [10],6.041
same,Antimicrobial activity toward E. coli (Figure 7a),E. coli (CMCC(B)44102); [11],6.4456
same,Antimicrobial activity toward E. coli (Figure 7a),E. coli (CMCC(B)44102); [12],6.497
same,Antimicrobial activity toward E. coli (Figure 7a),E. coli (CMCC(B)44102); [4],5.633
same,Antimicrobial activity toward E. coli (Figure 7a),E. coli (CMCC(B)44102); [5],6.487
same,Antimicrobial activity toward E. coli (Figure 7a),E. coli (CMCC(B)44102); [6],6.525
same,Antimicrobial activity toward E. coli (Figure 7a),E. coli (CMCC(B)44102); [7],5.929
same,Antimicrobial activity toward E. coli (Figure 7a),E. coli (CMCC(B)44102); [8],6.479
same,Antimicrobial activity toward E. coli (Figure 7a),E. coli (CMCC(B)44102); [9],6.497
"CCCCCOc1ccc(-c2cc(-c3ccc(C(=O)N[C@H]4C[C@@H](O)[C@@H](O)NC(=O)[C@@H]5[C@@H](O)[C@@H](C)CN5C(=O)[C@H]([C@H](O)CC(N)=O)NC(=O)[C@H]([C@H](O)[C@@H](O)c5ccc(O)c(OS(=O)(=O)O)c5)NC(=O)[C@@H]5C[C@@H](O)CN5C(=O)[C@H]([C@@H](C)O)NC4=O)cc3)no2)cc1 [Micafungin] (X1-[Orn(4R-OH,5R-OH)]T[Hyp][hTyr(3S-OH,4S-OH,3'-OSO3H)][Gln(3R-OH)][Pro(3S-OH,4S-Me)]; lactam 1-C)",resistance degree of C. albicans ATCC 10231,[3],S
same,resistance degree of C. albicans ATCC 90028,[3],S
same,resistance degree of C. albicans ATCC 90029,[3],S
CCC(C)n1ncn(-c2ccc(N3CCN(c4ccc(OCC5COC(Cn6cncn6)(c6ccc(Cl)cc6Cl)O5)cc4)CC3)cc2)c1=O (centres unmarked) [Itraconazole],resistance degree of C. albicans ATCC 10231,[3],R
same,resistance degree of C. albicans ATCC 90028,[3],DD-S
same,resistance degree of C. albicans ATCC 90029,[3],S
C[C@@H](c1ncncc1F)[C@](O)(Cn1cncn1)c1ccc(F)cc1F [Voriconazole],resistance degree of C. albicans ATCC 10231,[3],S
same,resistance degree of C. albicans ATCC 90028,[3],S
same,resistance degree of C. albicans ATCC 90029,[3],S
OC(Cn1cncn1)(Cn1cncn1)c1ccc(F)cc1F [Fluconazole],resistance degree of C. albicans ATCC 10231,[3],R
same,resistance degree of C. albicans ATCC 90028,[3],S
same,resistance degree of C. albicans ATCC 90029,[3],S
"CCCCCOc1ccc(-c2ccc(-c3ccc(C(=O)N[C@H]4C[C@@H](O)[C@@H](O)NC(=O)[C@@H]5[C@@H](O)[C@@H](C)CN5C(=O)[C@H]([C@@H](C)O)NC(=O)[C@H]([C@H](O)[C@@H](O)c5ccc(O)cc5)NC(=O)[C@@H]5C[C@@H](O)CN5C(=O)[C@H]([C@@H](C)O)NC4=O)cc3)cc2)cc1 [Anidulafungin] ({pTerphenylCO(4''-OnC5H11)}-[Orn(4R-OH,5R-OH)]T[Hyp][hTyr(3S-OH,4S-OH)]T[Pro(3S-OH,4S-Me)]; lactam 1-C)",resistance degree of C. albicans ATCC 10231,[3],R
same,resistance degree of C. albicans ATCC 90028,[3],S
same,resistance degree of C. albicans ATCC 90029,[3],S
CC[C@H](C)C[C@H](C)CCCCCCCCC(=O)N[C@H]1C[C@@H](O)[C@@H](NCCN)NC(=O)[C@@H]2[C@@H](O)CCN2C(=O)[C@H]([C@H](O)CCN)NC(=O)[C@H]([C@H](O)[C@@H](O)c2ccc(O)cc2)NC(=O)[C@@H]2C[C@@H](O)CN2C(=O)[C@H]([C@@H](C)O)NC1=O [Caspofungin],resistance degree of C. albicans ATCC 10231,[3],S
same,resistance degree of C. albicans ATCC 90028,[3],S
same,resistance degree of C. albicans ATCC 90029,[3],S
Nc1nc(=O)[nH]cc1F [5-Flucytosine],resistance degree of C. albicans ATCC 10231,[3],S
same,resistance degree of C. albicans ATCC 90028,[3],S
same,resistance degree of C. albicans ATCC 90029,[3],R
